Results from patent US5128330A, “Oxazinone substituted phosphines” (Biofor, Ltd., priority 1991, dated 1992).

Test system: carrageenan-induced hind paw edema
Test: Acute antiinflammatory activity, carrageenan-induced paw edema test
Type: in vivo, Male Sprague-Dawley rats
Details: dosed 1 h before carrageenan, paw volume 3 h after carrageenan, rats
Procedure: Anti-Inflammatory: This activity was evaluated using a modification of the carrageenan-induced paw edema test described by C. A. Winter et al in Proc. Soc. […] This assay measures the ability of the test compound to antagonize local edema, a characteristic of the inflammatory response.
Acute antiinflammatory activity was evaluated using the carrageenan-inducedpaw edema test described by C. A. Winter, et al in Proc. Soc.
Male Sprague-Dawley rats were divided into groups of six rats each. […] One hour after dosing with the test compounds, the left hind paws were injected with a 0.1 ml carrageenan solution (1% in distilled water, sterilized) intraplantarly. Three hours after carrageenan injection the volume of the injected paws was redetermined. Group means were also determined and the drug effect was calculated as percent inhibition of the hind paw edema according to the following equation: [formula]

Structure (SMILES)	% Inhibition (percent inhibition of the hind paw edema) (100 mg (so in the source))	% Inhibition (percent inhibition of the hind paw edema) (100 mg/kg)
CC(=O)Oc1ccccc1C(=O)O [Aspirin]	50%	
CN1OCCC([P+](c2ccccc2)(c2ccccc2)c2ccccc2)C1=O (centres unmarked) [Example 1, (dihydro-N-methyl-2H-1,2-oxazin-3(4H)-oxo-4-yl)triphenylphosphonium bromide]		62%
